Measured values from ChEMBL document CHEMBL5653615 (J Biol Chem, 2013).

Tests used:
[1] = molecular target: T1, Phosphorylase b kinase gamma catalytic chain, liver/testis isoform (Homo sapiens) (UniProt P15735); assay: Inhibition of human PHKg2 at 18.6 nM by HotSpot assay relative to control
T1 sequence (whole entry): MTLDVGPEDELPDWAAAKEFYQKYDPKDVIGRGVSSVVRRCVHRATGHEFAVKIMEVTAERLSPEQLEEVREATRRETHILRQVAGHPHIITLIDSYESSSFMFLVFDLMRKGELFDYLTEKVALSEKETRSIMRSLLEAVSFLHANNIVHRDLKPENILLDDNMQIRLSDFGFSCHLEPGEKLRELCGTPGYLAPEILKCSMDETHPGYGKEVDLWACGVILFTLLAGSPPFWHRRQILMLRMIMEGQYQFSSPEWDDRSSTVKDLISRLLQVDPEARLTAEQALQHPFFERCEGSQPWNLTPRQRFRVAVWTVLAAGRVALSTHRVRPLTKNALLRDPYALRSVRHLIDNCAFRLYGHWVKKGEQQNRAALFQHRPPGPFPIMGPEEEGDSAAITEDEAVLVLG

[2] = molecular target: MAP kinase-interacting serine/threonine-protein kinase 1 (Homo sapiens) (UniProt Q9BUB5); assay: Inhibition of human MNK1 at 18.6 nM by HotSpot assay relative to control
[3] = molecular target: CDK1/Cyclin A (Homo sapiens) (UniProt P06493+P20248); assay: Inhibition of human CDK1/cyclin A at 18.6 nM by HotSpot assay relative to control; type: protein-complex assay
[4] = molecular target: T2, Calcium/calmodulin-dependent protein kinase type IV (Homo sapiens) (UniProt Q16566); assay: Inhibition of human CAMK4 at 18.6 nM by HotSpot assay relative to control
T2 sequence (whole entry): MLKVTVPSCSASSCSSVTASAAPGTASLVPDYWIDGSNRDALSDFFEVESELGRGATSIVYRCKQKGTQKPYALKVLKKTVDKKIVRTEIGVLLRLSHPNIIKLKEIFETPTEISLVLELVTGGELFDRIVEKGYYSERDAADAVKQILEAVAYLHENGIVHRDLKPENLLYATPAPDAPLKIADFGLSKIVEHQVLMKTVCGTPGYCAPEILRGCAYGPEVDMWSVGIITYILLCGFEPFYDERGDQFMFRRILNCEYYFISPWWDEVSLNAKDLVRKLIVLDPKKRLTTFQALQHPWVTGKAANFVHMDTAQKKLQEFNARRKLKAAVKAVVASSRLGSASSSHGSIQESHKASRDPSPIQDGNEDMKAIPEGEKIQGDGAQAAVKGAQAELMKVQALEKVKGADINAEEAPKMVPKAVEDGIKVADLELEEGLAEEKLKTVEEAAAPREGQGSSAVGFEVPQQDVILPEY

[5] = molecular target: Serine/threonine-protein kinase B-raf (Homo sapiens) (UniProt P15056); assay: Inhibition of human BRAF at 18.6 nM by HotSpot assay relative to control
[6] = molecular target: T3, Mitogen-activated protein kinase 13 (Homo sapiens) (UniProt O15264); assay: Inhibition of human MAPK13 at 18.6 nM by HotSpot assay relative to control
T3 sequence (whole entry): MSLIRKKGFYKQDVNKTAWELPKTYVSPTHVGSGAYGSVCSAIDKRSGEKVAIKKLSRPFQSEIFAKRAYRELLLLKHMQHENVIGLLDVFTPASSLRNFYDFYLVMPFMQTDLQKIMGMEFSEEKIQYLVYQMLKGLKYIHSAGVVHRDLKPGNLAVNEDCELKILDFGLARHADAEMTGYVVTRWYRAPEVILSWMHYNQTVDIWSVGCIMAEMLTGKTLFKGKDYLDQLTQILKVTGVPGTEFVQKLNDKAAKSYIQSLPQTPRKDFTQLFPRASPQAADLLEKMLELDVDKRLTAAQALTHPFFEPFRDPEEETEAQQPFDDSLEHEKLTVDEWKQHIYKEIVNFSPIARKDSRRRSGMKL

[7] = molecular target: Ephrin type-A receptor 2 (Homo sapiens) (UniProt P29317); assay: Inhibition of human EPHA2 at 18.6 nM by HotSpot assay relative to control
[8] = molecular target: MAP/microtubule affinity-regulating kinase 3 (Homo sapiens) (UniProt P27448); assay: Inhibition of human MARK3 at 18.6 nM by HotSpot assay relative to control
[9] = molecular target: Dual specificity protein kinase CLK2 (Homo sapiens) (UniProt P49760); conditions: dose 1.82 nM
Description: Inhibition of human CLK2 at 1.82 nM by HotSpot assay relative to control

[10] = molecular target: Ribosomal protein S6 kinase beta-1 (Homo sapiens) (UniProt P23443); assay: Inhibition of human RPS6KB1 at 1.82 nM by HotSpot assay relative to control
[11] = molecular target: Protein kinase C delta type (Homo sapiens) (UniProt Q05655); assay: Inhibition of human PKCd at 1.82 nM by HotSpot assay relative to control
[12] = molecular target: T4, Serine/threonine-protein kinase D1 (Homo sapiens) (UniProt Q15139); assay: Inhibition of human PRKD1 at 1.82 nM by HotSpot assay relative to control
T4 sequence (whole entry): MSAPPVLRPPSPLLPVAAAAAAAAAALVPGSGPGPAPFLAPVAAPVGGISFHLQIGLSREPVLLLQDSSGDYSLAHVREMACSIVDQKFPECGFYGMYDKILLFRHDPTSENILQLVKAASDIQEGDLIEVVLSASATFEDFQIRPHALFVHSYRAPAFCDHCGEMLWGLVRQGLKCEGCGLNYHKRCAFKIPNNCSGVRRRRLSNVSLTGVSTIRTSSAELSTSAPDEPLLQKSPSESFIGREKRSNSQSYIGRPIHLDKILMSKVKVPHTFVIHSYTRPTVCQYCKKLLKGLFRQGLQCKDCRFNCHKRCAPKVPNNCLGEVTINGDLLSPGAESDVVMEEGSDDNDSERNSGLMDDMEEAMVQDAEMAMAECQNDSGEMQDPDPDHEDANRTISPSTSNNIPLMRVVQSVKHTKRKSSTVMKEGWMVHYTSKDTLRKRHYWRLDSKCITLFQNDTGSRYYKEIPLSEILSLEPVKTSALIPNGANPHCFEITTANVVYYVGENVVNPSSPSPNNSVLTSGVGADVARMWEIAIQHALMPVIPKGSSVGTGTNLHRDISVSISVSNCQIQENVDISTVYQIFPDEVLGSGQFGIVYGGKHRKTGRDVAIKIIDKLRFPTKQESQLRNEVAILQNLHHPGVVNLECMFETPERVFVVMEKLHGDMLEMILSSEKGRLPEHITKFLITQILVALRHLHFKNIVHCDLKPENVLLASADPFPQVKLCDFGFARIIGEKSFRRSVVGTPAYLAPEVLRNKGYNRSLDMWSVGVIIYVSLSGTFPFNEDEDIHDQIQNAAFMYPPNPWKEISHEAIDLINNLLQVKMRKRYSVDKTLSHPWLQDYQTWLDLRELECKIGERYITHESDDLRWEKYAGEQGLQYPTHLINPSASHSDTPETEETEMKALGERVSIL

[13] = molecular target: Misshapen-like kinase 1 (Homo sapiens) (UniProt Q8N4C8); assay: Inhibition of human MINK1 at 1.82 nM by HotSpot assay relative to control
Chain of Misshapen-like kinase 1 (Homo sapiens) (Q8N4C8 whole entry, looked up): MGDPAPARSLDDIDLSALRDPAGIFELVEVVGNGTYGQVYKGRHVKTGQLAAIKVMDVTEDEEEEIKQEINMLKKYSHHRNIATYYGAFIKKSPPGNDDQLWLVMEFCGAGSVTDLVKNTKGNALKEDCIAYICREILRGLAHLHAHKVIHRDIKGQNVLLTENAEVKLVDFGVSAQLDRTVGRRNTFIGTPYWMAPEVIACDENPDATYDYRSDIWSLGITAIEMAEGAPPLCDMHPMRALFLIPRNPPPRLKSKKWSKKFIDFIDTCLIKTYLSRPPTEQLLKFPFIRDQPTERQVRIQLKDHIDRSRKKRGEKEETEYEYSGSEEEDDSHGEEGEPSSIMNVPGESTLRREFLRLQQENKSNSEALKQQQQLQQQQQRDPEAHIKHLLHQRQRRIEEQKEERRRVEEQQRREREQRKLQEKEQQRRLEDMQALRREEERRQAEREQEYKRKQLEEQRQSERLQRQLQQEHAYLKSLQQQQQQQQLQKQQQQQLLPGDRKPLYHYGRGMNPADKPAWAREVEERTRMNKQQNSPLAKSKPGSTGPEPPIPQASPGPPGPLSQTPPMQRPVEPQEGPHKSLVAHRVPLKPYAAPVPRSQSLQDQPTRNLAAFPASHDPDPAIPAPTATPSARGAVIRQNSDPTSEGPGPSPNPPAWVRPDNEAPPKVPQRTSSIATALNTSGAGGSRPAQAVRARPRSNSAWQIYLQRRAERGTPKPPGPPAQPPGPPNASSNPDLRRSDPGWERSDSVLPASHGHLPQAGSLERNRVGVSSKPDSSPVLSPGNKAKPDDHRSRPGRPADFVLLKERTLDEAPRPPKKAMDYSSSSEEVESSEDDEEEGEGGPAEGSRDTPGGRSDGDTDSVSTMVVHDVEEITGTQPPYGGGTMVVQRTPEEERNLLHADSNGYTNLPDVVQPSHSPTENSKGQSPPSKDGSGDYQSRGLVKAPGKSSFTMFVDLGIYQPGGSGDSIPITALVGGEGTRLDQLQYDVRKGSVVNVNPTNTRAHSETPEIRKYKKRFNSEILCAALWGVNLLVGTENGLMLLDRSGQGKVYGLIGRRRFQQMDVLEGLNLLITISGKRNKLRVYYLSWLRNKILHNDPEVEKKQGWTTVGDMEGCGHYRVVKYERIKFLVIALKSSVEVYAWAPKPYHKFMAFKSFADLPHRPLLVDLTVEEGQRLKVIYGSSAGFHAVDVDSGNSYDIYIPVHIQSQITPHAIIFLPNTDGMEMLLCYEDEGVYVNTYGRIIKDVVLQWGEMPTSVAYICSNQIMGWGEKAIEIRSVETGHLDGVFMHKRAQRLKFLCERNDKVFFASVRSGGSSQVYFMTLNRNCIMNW

Chain of CDK1/Cyclin A (Homo sapiens) (P06493 whole entry, looked up): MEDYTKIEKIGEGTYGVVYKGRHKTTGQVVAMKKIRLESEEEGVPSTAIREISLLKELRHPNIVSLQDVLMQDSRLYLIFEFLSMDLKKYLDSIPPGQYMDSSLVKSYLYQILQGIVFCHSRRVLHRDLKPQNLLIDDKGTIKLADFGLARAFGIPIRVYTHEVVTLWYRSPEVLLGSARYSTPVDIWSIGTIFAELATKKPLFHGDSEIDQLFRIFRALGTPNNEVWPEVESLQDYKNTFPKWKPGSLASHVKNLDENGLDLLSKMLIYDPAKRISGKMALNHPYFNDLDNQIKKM
Chain of CDK1/Cyclin A (Homo sapiens) (P20248 whole entry, looked up): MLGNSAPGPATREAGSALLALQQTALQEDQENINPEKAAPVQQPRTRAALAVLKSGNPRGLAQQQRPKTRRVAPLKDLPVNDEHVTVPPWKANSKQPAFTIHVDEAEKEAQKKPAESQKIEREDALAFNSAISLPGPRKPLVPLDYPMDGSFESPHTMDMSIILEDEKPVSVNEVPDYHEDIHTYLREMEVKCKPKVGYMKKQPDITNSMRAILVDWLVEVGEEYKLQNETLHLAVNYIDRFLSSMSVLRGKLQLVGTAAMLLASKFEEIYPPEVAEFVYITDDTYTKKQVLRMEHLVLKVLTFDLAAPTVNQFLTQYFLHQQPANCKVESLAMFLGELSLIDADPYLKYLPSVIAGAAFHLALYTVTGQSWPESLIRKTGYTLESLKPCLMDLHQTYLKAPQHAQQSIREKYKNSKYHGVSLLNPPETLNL
Chain of Serine/threonine-protein kinase B-raf (Homo sapiens) (P15056 whole entry): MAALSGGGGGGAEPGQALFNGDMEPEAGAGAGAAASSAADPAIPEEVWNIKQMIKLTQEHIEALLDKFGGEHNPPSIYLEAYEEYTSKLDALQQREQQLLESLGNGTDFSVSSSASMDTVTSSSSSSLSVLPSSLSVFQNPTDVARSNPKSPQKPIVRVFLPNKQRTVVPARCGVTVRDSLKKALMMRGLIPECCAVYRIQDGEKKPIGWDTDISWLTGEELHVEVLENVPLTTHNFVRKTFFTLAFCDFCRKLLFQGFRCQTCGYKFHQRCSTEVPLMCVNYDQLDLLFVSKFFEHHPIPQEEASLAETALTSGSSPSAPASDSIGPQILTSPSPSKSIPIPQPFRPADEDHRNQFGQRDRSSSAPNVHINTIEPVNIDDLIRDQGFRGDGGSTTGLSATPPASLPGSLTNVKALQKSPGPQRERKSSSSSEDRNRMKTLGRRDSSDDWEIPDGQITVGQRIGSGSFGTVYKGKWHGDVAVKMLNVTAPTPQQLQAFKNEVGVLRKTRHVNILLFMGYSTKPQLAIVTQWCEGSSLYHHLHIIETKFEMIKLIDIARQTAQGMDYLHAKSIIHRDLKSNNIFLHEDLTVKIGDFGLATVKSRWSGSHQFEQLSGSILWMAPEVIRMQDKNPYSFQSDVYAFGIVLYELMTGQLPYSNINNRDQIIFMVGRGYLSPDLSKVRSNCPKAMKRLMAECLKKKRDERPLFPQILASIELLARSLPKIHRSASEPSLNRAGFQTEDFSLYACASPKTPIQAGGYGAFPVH
Chain of MAP/microtubule affinity-regulating kinase 3 (Homo sapiens) (P27448 whole entry, looked up): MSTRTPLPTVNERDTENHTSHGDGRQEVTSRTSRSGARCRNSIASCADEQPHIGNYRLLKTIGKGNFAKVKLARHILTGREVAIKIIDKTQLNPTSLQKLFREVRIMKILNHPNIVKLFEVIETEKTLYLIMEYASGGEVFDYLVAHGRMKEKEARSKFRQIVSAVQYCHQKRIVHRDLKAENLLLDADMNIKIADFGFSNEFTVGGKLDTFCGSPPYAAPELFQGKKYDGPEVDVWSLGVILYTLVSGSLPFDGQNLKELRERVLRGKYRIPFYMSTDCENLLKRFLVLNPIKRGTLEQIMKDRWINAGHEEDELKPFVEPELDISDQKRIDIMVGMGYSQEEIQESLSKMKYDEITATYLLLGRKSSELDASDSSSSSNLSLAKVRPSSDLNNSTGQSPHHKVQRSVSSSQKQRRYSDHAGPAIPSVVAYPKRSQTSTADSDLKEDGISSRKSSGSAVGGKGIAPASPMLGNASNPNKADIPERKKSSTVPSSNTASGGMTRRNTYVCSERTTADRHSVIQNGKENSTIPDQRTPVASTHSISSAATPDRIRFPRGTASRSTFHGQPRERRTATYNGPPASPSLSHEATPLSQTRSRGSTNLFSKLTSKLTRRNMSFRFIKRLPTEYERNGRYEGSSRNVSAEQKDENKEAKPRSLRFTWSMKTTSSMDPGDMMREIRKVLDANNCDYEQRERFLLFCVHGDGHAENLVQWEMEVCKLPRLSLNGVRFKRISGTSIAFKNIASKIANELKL
Chain of Ribosomal protein S6 kinase beta-1 (Homo sapiens) (P23443 whole entry, looked up): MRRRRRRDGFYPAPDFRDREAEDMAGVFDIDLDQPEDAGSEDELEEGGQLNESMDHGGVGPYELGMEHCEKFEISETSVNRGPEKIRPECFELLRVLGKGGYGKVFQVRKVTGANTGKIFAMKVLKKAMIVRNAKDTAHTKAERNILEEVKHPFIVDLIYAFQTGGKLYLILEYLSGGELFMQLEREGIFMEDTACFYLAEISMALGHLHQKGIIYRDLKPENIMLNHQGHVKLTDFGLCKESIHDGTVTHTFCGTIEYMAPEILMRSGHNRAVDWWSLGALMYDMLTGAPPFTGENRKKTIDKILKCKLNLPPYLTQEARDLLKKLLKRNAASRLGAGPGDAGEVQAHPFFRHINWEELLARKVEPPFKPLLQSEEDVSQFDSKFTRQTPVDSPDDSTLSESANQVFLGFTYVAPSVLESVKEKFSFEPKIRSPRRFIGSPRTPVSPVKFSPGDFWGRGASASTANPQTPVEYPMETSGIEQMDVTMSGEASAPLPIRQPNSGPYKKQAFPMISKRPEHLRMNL
Chain of MAP kinase-interacting serine/threonine-protein kinase 1 (Homo sapiens) (Q9BUB5 whole entry, looked up): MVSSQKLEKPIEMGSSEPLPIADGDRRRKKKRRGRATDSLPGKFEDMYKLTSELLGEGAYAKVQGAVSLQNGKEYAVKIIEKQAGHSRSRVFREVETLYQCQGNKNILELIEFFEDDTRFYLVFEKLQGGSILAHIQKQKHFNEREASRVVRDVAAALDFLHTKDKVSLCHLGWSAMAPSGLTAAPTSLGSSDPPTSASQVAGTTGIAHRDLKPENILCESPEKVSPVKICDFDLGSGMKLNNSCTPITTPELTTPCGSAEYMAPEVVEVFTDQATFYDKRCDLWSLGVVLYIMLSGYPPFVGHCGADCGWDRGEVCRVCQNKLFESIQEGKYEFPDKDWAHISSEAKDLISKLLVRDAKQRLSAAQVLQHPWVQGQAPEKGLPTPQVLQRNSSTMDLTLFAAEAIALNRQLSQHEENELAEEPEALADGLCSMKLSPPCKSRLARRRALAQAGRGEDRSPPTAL

| inhibition [1] [%] | inhibition [2] [%] | inhibition [3] [%] | inhibition [4] [%] | inhibition [5] [%] | inhibition [6] [%] | inhibition [7] [%] | inhibition [8] [%] | inhibition [9] [%] | inhibition [10] [%] | inhibition [11] [%] | inhibition [12] [%] | inhibition [13] [%] | SMILES |
| --- | --- | --- | --- | --- | --- | --- | --- | --- | --- | --- | --- | --- | --- |
| -2.29 | 0.3 | 1.16 | 4.07 | 7.79 | -4.06 | 2.9 | 2.43 | – | – | – | – | – | C[C@]1(O)C[C@@H](c2nc(-c3ccc4ccc(-c5ccccc5)nc4c3)c3c(N)nccn32)C1 |
| – | – | – | – | – | – | – | – | -1.7 | -5.56 | -1.35 | -5.1 | 0.36 | C[C@@]1(C(=O)Nc2ccc(F)nc2)CCCN1c1nc(Nc2cc(C3CC3)n[nH]2)c2cccn2n1 |
